# Experiments:
# LigM = biological target: T1, LigM (Novosphingobium aromaticivorans, UniProt Q2G4C6); assay: HPLC-MS substrate depletion and product formation; type: biochemical; details: tetrahydrofolate as methyl acceptor, anaerobic, 30 C, phosphate buffer
# T1 construct: gene Saro_2861; full length, N-terminal His8-TEV tag cleaved, from E. coli B834
# DesA = biological target: T2, DesA (Novosphingobium aromaticivorans, UniProt Q2G5N3); assay: HPLC-MS substrate depletion and product formation; type: biochemical; details: tetrahydrofolate as methyl acceptor, anaerobic, 30 C, phosphate buffer
# T2 construct: gene Saro_2404; full length, N-terminal His8-TEV tag cleaved, from E. coli B834; b91 prints Saro_2402 (probable misprint, Saro_2404 everywhere else)
# T2 sequence (Q2G5N3 entry or part of it): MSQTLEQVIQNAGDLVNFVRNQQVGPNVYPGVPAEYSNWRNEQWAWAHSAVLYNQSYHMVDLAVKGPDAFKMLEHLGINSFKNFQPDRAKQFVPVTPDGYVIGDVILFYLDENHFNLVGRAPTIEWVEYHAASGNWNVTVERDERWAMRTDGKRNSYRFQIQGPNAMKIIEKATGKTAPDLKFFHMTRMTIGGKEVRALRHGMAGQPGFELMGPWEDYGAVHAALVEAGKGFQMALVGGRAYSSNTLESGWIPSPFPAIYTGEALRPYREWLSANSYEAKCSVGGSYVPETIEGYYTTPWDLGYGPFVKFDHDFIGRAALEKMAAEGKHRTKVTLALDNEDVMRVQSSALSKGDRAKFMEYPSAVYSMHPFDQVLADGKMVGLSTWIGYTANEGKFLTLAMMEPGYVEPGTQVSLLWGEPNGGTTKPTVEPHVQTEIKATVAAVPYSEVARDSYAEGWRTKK
# T1 sequence (Q2G4C6 entry or part of it): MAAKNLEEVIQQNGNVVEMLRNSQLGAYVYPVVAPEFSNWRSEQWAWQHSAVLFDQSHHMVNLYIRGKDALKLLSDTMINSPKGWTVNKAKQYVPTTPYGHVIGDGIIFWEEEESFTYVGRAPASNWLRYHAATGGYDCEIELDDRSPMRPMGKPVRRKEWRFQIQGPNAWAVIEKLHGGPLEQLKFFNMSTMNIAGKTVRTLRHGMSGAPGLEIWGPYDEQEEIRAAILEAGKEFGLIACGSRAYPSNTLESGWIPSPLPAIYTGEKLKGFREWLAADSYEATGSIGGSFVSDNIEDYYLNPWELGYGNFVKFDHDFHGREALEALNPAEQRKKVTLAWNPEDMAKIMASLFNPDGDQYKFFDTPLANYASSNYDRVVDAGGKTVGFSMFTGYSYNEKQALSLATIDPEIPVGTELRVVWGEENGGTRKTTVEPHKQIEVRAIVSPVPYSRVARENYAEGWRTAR
Structure (SMILES),HPLC-MS substrate depletion and product formation (LigM),HPLC-MS substrate depletion and product formation (DesA)
COc1cc(C(=O)O)cc(O)c1O [3-MGA],LigM protein of N. aromaticivorans was able to convert 3-MGA into GA,–
COc1cc(C(=O)O)ccc1O [vanillic acid],able to convert 3-MGA into GA and vanillic acid into PCA at comparable rates,"demethylated both syringic acid and, somewhat more slowly, vanillic acid"
